We go through two substances from US20090304674A1, “METHODS FOR TREATING DISEASE BY REGULATING CLL CELL SURVIVAL” (priority 2005, published 2009).

Type in all cases: cell-based, human
Experiment [1] has as its system Mcl-1 in CLL B cells. As to the kind of experiment: Immunoblot of Mcl-1 expression in CLL B cells. The conditions noted are these: short-term culture of isolated CLL B cells. Here is the method:
(§1) Cell lysates were prepared with RIPA buffer (10 mM Tris (pH 7.4), 150 mM NaCl, 1% Triton x 100, 1% deoxycholate, 0.1% SDS, 5 mM EDTA), containing 1 mM PMSF, 0.28 TIU/ml aprotinin, 50 μg/ml leupeptin, 1 mM benzamidine, 0.7 μg/ml pepstatin. Lysates were normalized for total protein (20 μg), subjected to SDS-PAGE (4-15% gradient gels, Bio-Rad, Hercules, Calif.) and immunoblot assay. We incubated the blots with secondary antibodies that were conjugated with horseradish peroxidase. Blots then were prepared for enhanced chemiluminescence (ECL) detection system (Amersham, Little Chalfont, Buckinghamshire, UK) and subsequent autoradiography with Super RX film (Fuji, Tokyo, Japan). The mouse mAb against APRIL (APRIL8) was from Alexis Biochemicals. The mouse mAb against inhibitor of kappa B-α (IκκBα was from Imgenex (San Diego, Calif.). The antibodies against anti-phosho-MAP kinase Erk1/2 and anti-MAP kinase Erk1/2-CT were purchased from Upstate Biotechnology. Antibodies against AKT or phospho-AKT (Ser473) were from Cell Signaling (Beverly, Mass.). Rabbit polyclonal antibodies (Mcl-1, Bcl-2, and Bax) were raised against synthetic peptides.21 Also primary antibodies included β-actin (Sigma Immunochemicals, St Louis, Mo.). Anti-p52 and anti-p65 antibodies were purchased from Upstate Biotechnology.

Experiment [2] has as its system Bcl-2, Bax, Bcl-xL in CLL B cells. Nature of the experiment: Immunoblot of Bcl-2, Bax, Bcl-xL expression in CLL B cells. The note with it: short-term culture of isolated CLL B cells. Here is the method: as §1
A general note: A western blot detects proteins with antibodies after separation by electrophoresis.

The test system of experiment [3] is NF-κB2/p100 pathway in CLL B cells. Nature of the experiment: Immunoblot of alternative NF-κB2 pathway activation (p100 to p52, p52 nuclear translocation) in CLL B cells. The note with it: concentrations that promote CLL cell survival; rhBAFF 50 ng/ml, rhAPRIL 500 ng/ml, 24 hours. Here is the method:
as §1
For fractionation experiments, cells were collected by centrifugation and washed with PBS. The cell pellet containing 5×10^6 cells was suspended in 100 μl of hypotonic buffer (50 mM Tris (pH7.4), 5 mM EDTA, 10 mM NaCl, 0.05% NP-40, 1 mM PMSF, 10 μg/ml Aprotinin, 10 μg/ml Leupeptin, 10 μg/ml Pepstatin, 10 mM β-Glycerophosphate, 1 mM Na-Vanadate, 1 mM NaF). After 10 minutes the lysate was spun and the supernatant was collected as cytoplasmic lysates. The pellet was washed 5 times in hypotonic buffer containing 0.1% NP-40. The remaining pellet was suspended in 100 μl RIPA buffer containing protease and phosphatase inhibitors. […]

In experiment [4] the test system is canonical NF-κB1 pathway in CLL B cells. As to the kind of experiment: Immunoblot of canonical NF-κB1 pathway activation (IκBα degradation/phosphorylation, p65 nuclear translocation) in CLL B cells. The conditions noted are these: concentrations that promote CLL cell survival; rhBAFF 50 ng/ml, rhAPRIL 500 ng/ml. Here is the method:
as §1
For fractionation experiments, cells were collected by centrifugation and washed with PBS. The cell pellet containing 5×10^6 cells was suspended in 100 μl of hypotonic buffer (50 mM Tris (pH7.4), 5 mM EDTA, 10 mM NaCl, 0.05% NP-40, 1 mM PMSF, 10 μg/ml Aprotinin, 10 μg/ml Leupeptin, 10 μg/ml Pepstatin, 10 mM β-Glycerophosphate, 1 mM Na-Vanadate, 1 mM NaF). After 10 minutes the lysate was spun and the supernatant was collected as cytoplasmic lysates. The pellet was washed 5 times in hypotonic buffer containing 0.1% NP-40. The remaining pellet was suspended in 100 μl RIPA buffer containing protease and phosphatase inhibitors. After an appropriate amount of 3× sample buffer (200 mM Tris (pH 6.8), 30 mM EDTA, 30% Glycerol, 6% SDS) was added, the sample was boiled for 10 minutes, spun for 10 minutes and the supernatant was recovered as nucleus lysates. Anti-NF kappa B p52 and p65 were purchased from Upstate Biotechnology. Anti-SP-1 was purchased from Santa Cruz Biotechnology (Santa Cruz, Calif.).
Cell lysates were prepared with radioimmunoprecipitation assay (RIPA) buffer (10 mM Tris [pH 7.4], 150 mM NaCl, 1% Triton X-100, 0.1% deoxycholate, 0.1% SDS, 5 mM EDTA), containing 1× complete protease inhibitor cocktail (Roche diagnostics), 1 mM sodium fluoride (NaF), and 1 mM sodium vanadate (Na3VO4). Lysates were normalized for total protein (25 μg) and subjected to SDS-PAGE (4-15% gradient gels, Bio-Rad, Hercules, Calif.) and immunoblot assay. We incubated the blots with secondary antibodies that were conjugated with horseradish peroxidase. Blots then were prepared for enhanced chemiluminescence (ECL) detection system (Amersham, Little Chalfont, United Kingdom) and subsequent autoradiography with Super RX film (Fuji, Tokyo, Japan).
For fractionation experiments, cells were collected by centrifugation and washed with PBS. The cell pellet containing 5×10^6 cells was suspended in 100 μl of hypotonic buffer (50 mM Tris [pH7.4], 5 mM EDTA, 10 mM NaCl, 0.05% Nonidet P40 [NP-40]), containing 1× complete protease inhibitor cocktail, 1 mM NaF, and 1 mM Na3VO4. After 10 minutes, the lysate was spun and the supernatant was collected as cytoplasmic lysates. […]

Experiment [5] relates to p44/42 MAPK (ERK1/2) in CLL B cells. Nature of the experiment: Immunoblot of ERK1/2 phosphorylation in CLL B cells. The conditions noted are these: SDF-1α 200 ng/ml. Here is the method:
as §1

The test system of experiment [6] is AKT in CLL B cells. As to the kind of experiment: Immunoblot of AKT (Ser473) phosphorylation in CLL B cells. The note with it: SDF-1α 200 ng/ml. As for the experimental part:
as §1

[7] abbreviates: 3 or 10 minutes, rhBAFF 50 ng/ml.
Where [8] appears, read: 3 minutes, 4F at 50 nM or 500 nM.

For SDF-1α, in experiment [1], the “induction of Mcl-1 expression in CLL B cells” value is recorded as “could not induce isolated CLL B cells to express higher levels of Mcl-1”. Besides, in experiment [2], the “changes in levels of Bcl-2, Bax, or Bcl-xL” value is listed as “did not observe significant changes”. In addition, the “activation of NF-κB2 (processing of p100 to p52, translocation of p52 to the nucleus)” value in experiment [3] was “did not observe activation of NF-κB2”. The “activation of classical/canonical NF-κB pathway (IκBα degradation, p65 translocation to nucleus)” value in experiment [4] was “did not have this activity”. For the same substance, in experiment [5] (setting [7]), the “induction of phosphorylation of ERK1/2” value is reported as “induced phosphorylation of ERK1/2”. For the same substance, the “induction of phosphorylation/activation of AKT (Ser473)” value in experiment [6] (setting [7]) is recorded as “induced phosphorylation of AKT at Ser473”.

For the substance 4F-benzoyl-TE14011 [reference compound], in experiment [5] (setting [8]), the “block of SDF-1α-induced phosphorylation of ERK1/2” value was “could be blocked”. In experiment [6] (setting [8]), the “block of SDF-1α-induced phosphorylation of AKT at Ser473” value is “could be blocked”.
